This is an account of results in publication PMC4859512, “Polyamino-Isoprenic Derivatives Block Intrinsic Resistance of P. aeruginosa to Doxycycline and Chloramphenicol In Vitro” (PLoS ONE, 2016).

In one assay the test system is P. aeruginosa PA01. Nature of the assay: Comparison of efficiency between compounds and PAßN (compound gradient with 2 mg/L doxycycline). The format is cell-based, Pseudomonas aeruginosa. The following applies: for concentration needed to inhibit growth in the presence of doxycycline: PA01, doxycycline 2 mg/L, 18 h. On the procedure:
Serial dilutions of each compound (from 270 μM to 0.95 μM for PAßN and from 135 μM to 0.06 μM for 3) were prepared in microplates. Doxycycline (2 mg/L) was then added to each well before inoculation of bacteria (5x10^5 cfu/mL). Optical density (600 nm) was measured after 18 hours at 37°C. Only the relevant part of the graphs are shown. Experiments were performed in triplicate.
First, we performed a checkerboard assay to analyze the synergy between doxycycline and the polyamino-isoprenic compound and between doxycycline and PAβN. For both, compound 3 and PAβN we observed a synergistic inhibition of growth when combined with doxycycline with a FIC Index of 0.09 (S2 Table). […] PAßN is generally used at a concentration greater than 10 μM to inhibit the resistance of P. aeruginosa with respect to various antibiotics, and, to our knowledge, no data have been reported in the literature on its use in combination with doxycycline. The percentage of growth inhibition was monitored as a function of compound concentration, and the results are presented in Fig 3.

The subject of assay [1] is P. aeruginosa PT629 (Mex AB overproducer). Nature of the assay: Antibiotic susceptibility testing (broth micro-dilution MIC), strain PT629. The format is cell-based, Pseudomonas aeruginosa. For orientation: In broth dilution the organism is exposed to a series of concentrations in liquid medium.
Assay [2] deals with P. aeruginosa PA01 ERY^R (Mex CD overproducer). The assay is described as follows: microbe, parasite or virus in culture. In kind it is cell-based, Pseudomonas aeruginosa.
The subject of assay [3] is P. aeruginosa FB1 (Mex B deleted). The assay is described as follows: Antibiotic susceptibility testing (broth micro-dilution MIC), strain FB1. The format is cell-based. The following applies: Pseudomonas aeruginosa, read-out: Minimal Inhibitory Concentration. As for the experimental part:
Experiments were performed on the BAC-SCREEN platform of the UMR-MD1, with a Freedom EVO 150 liquid handling system (Tecan, Lyon, France).

The test system of assay [4] is P. aeruginosa PA01 reference strain. The assay is described as follows: High-content screening in the presence of doxycycline. The following applies: compound 10 μM, doxycycline 4 mg/L.
Description: The screening was carried out in 96-well microtiter plates using MHBII, in a final volume of 200 μL. […] The bacterial inoculum of 5×10^5 CFU/mL was prepared from an overnight culture. In addition to the polyamino-isoprenic compounds, each plate contained PAßN, CCCP, CTAB, polymyxin-B and benzalkonium chloride as control molecules. Plates were incubated at 37°C under aerobic conditions for 18 hours. Plates were read at 600 nm on an Infinite M200 Pro plate reader (Tecan).
A series of 60 compounds, which were described [18], were tested at a concentration of 10 μM in combination with a sub-inhibitory concentration of doxycycline against the reference strain of P. aeruginosa PA01. In parallel, we evaluated the intrinsic antimicrobial activity of these compounds alone to allow the selection of only doxycycline adjuvants.
Another assay concerns CHO-K1 cells. Nature of the assay: cells. The format is cell-based, Chinese Hamster. The following applies: Cricetulus griseus, CHO-K1; WST1, 24 h; mean +/- SD, 2 independent experiments. On the procedure: CHO-K1 cells (ATCC-LGC Standards Sarl (Molsheim, France) and human fibroblasts (Clinisciences, Paris, France) were maintained in McCoy’s 5A and DMEM media, respectively, supplemented with 10% bovine calf serum, 2 mM glutamine, and 100 U/mL/10 μg/mL penicillin/streptomycin. They were incubated at 37°C in a humidified atmosphere containing 5% CO2. The cell lines were seeded in 96-well plates and incubated overnight. The cytotoxic effects of compounds were assessed by the colorimetric WST-1 cell proliferation assay as previously described. Briefly, a range of compound concentrations from 30 μM to 1200 μM was added to triplicate cultures, and cells were incubated at 37°C for 24 h. At the end of the incubation period, cultures were washed three times with phosphate buffer saline (PBS) and incubated in fresh culture medium containing 10% WST-1 for an additional 30 min. Cell viability was evaluated by measuring the WST-1 absorbance at 450 nm in a microplate spectrophotometer MRX1 II (Dynex technologies, Chantilly, VA, USA). The Inhibitory Concentration 50% (IC50) was chosen to evaluate the cytotoxicity of compounds. IC50 was defined as the concentration of a compound that induced a 50% decrease in viable cells. Doxorubicin was used as a positive control.
A general note: Formazan colour is commonly taken as a measure of viable cells.

Assay [5] relates to efflux of 1,2'-dinaphthylamine in strain PA01. The assay is described as follows: Real-time efflux assay (1,2'-dinaphthylamine, glucose-triggered). In kind it is cell-based, Pseudomonas aeruginosa. On the procedure:
The experiments were performed as previously described with slight modifications. For each strain, 20 mL of MHII was inoculated with a single colony from a fresh plate and grown at 37°C to the stationary phase. […] They were then loaded over night with the dye 1,2’-dinaphthylamine (TCI-Europe SA, Zwijndrecht, Belgium) at a final concentration of 32 μM, in the presence of 5 μM CCCP. […] In a 96-well Greiner black microplate (Greiner, Courtaboeuf, France), a gradient of inhibitor (when used) was prepared in PPB, and bacteria were added (100 μL per well). The fluorescence of the cell suspension, was monitored each 22 sec during 1200 sec on an Infinite M200 microplate reader (Tecan; excitation wavelength 370 nm and emission wavelength 420 nm). In order to trigger the transport, glucose (50 mM final concentration) is added at 200 sec. The maximum efficacy of the efflux is the difference between the value obtained without and with glucose addition after 1200 sec. For each compound, the efficiency of efflux inhibition is calculated as the difference between the maximum efficacy of transport and the residual transport obtained at various concentrations of the compound.

The mark [6] stands for this setting: Pseudomonas aeruginosa, read-out: Minimal Inhibitory Concentration.

Several values for one entry are separate records, joined by “and”; a condition that tells them apart may be missing. Identical values can stand only once.

For `CC(C)=CCCC(C)=CCCC(C)=CCNCCCNCCCCNCCCN` [Compound 3], the results for the “concentration needed to inhibit growth in the presence of doxycycline” value in the assay with P. aeruginosa PA01 and in the assay with P. aeruginosa PA01 (graphically determined on Fig 3) were roughly 1.22 mg/L and “approximately 3 μM”, respectively. For the same molecule, the “potency in comparison with PAßN” value with P. aeruginosa PA01 (adjuvant of doxycycline) was “approximately 10 times”. For the same molecule, the “MIC of Amikacin in the presence of the compound” value is 64 µg/mL in assay [1] (PT629, compound 10µM) and 32 µg/mL in assay [2] (PA01 ERY R, compound 10µM). The “MIC of Ceftazidime in the presence of the compound” value in assay [1] (PT629, compound 10µM) is 8 µg/mL; in assay [2] (PA01 ERY R, compound 10µM), 2 µg/mL. The “MIC of Ciprofloxacin in the presence of the compound” value was found to be 0.5 µg/mL in assay [1] (PT629, compound 10µM) and 0.125 µg/mL in assay [2] (PA01 ERY R, compound 10µM). The “MIC of Ticarcillin in the presence of the compound” value was found to be 64 µg/mL in assay [1] (PT629, compound 10µM) and 16 µg/mL in assay [2] (PA01 ERY R, compound 10µM). The MIC in assay [1] (setting [6]) was 25 µg/mL and 62.5 µM; in assay [2] (setting [6]), 25 µg/mL and 62.5 µM; in assay [3] it was 25 µg/mL and 62.5 µM. Further, the “bacterial growth in combination with doxycycline” value in assay [4] was “completely abolished bacterial growth”. Also, the IC50 in the assay with CHO-K1 cells stood at 320 ± 41.2 µM; in assay [5] (Pseudomonas aeruginosa, 2.5x10^8 cfu/mL, read-out: concentration needed to inhibit 50% of 1,2'DNA efflux), 31.2 µM. For the same molecule, the “rank of efflux inhibition among compounds 1-4 and PAßN” value in assay [5] is reported as “the most efficient”. Further, in assay [5] (Pseudomonas aeruginosa, compound at 31.25μM), at 31.25 µM the inhibition was 60%. Besides, the efflux inhibition entry is “fifty percent efflux inhibition” in assay [5] (compound at 15.6μM) and “completely abolished the transportation of dye” in assay [5] (compound at 125μM).

Broadly, the inhibition is the change of the read-out against control, counted positive when it falls. Read a high inhibition as strong suppression.
